Experimental findings from patent US6638972B2, “Chroman and benzofuran derivatives as 5-hydroxytryptamine-6 ligands” (Wyeth, priority 2001, dated 2003) are described below.

What is called melting point is the temperature, or range, at which the solid turns liquid. As usually defined, the Ki is a dissociation constant, usually derived from enzyme kinetics or from competition with a known ligand.

Where a name gives a salt, the structure may show the parent alone. Read-outs that look alike come from different tables or passages of the source.

Data set [1] addresses T1, human cloned 5-HT6 receptors (Homo sapiens, UniProt P50406).
T1 construct: expressed in transfected cells; host or cells: HeLa cells (membrane preparation)
The data set can be described thus: 5-HT6 binding affinity ([3H]-LSD displacement, membranes of Hela cells expressing human cloned 5-HT6 receptors). Particulars: [3H]-LSD 3.0 nM, Hela cell membranes, 120 min at room temperature. As to the method: The affinity of test compounds for the serotonin 5-T6 receptor is evaluated in the following manner. Cultured Hela cells expressing human cloned 5-HT6 receptors are harvested and centrifuged at low speed (1,000×g) for 10.0 min to remove the culture media. The harvested cells are suspended in half volume of fresh physiological phosphate buffered saline solution and recentrifuged at the same speed. This operation is repeated. The collected cells are then homogenized in ten volumes of 50 mM Tris.HCl (pH 7.4) and 0.5 mM EDTA. The homogenate is centrifuged at 40,000×g for 30.0 min and the precipitate is collected. The obtained pellet is resuspended in 10 volumes of Tris.HCl buffer and recentrifuged at the same speed. The final pellet is suspended in a small volume of Tris.HCl buffer and the tissue protein content is determined in aliquots of 10-25 μl volumes. Bovine Serum Albumin is used as the standard in the protein determination according to the method described in Lowry et al., J. Biol. Chem., 193:265 (1951). The volume of the suspended cell membranes is adjusted to give a tissue protein concentration of 1.0 mg/ml of suspension. The prepared membrane suspension (10 times concentrated) is aliquoted in 1.0 ml volumes and stored at −70° C. until used in subsequent binding experiments.
Binding experiments are performed in a 96 well microtiter plate format, in a total volume of 200 μl. […] The test compounds are added in 20.0 μl volume.
The reaction is allowed to proceed in the dark for 120 min at room temperature, at which time, the bound ligand-receptor complex is filtered off on a 96 well unifilter with a Packard Filtermate® 196 Harvester. The bound complex caught on the filter disk is allowed to air dry and the radioactivity is measured in a Packard TopCount® equipped with six photomultiplier detectors, after the addition of 40.0 μl Microscint®-20 scintillant to each shallow well. The unifilter plate is heat-sealed and counted in a PackardTopCount® with a tritium efficiency of 31.0%.
Binding in the presence of varying concentrations of test compound is expressed as a percentage of specific binding in the absence of test compound. The results are plotted as log % bound versus log concentration of test compound. […] A linear regression line of data points is plotted, from which the IC50 value is determined and the Ki value is determined based upon the following equation: […]
where L is the concentration of the radioactive ligand used and KD is the dissociation constant of the ligand for the receptor, both expressed in nM.

T1 sequence (P50406 whole entry): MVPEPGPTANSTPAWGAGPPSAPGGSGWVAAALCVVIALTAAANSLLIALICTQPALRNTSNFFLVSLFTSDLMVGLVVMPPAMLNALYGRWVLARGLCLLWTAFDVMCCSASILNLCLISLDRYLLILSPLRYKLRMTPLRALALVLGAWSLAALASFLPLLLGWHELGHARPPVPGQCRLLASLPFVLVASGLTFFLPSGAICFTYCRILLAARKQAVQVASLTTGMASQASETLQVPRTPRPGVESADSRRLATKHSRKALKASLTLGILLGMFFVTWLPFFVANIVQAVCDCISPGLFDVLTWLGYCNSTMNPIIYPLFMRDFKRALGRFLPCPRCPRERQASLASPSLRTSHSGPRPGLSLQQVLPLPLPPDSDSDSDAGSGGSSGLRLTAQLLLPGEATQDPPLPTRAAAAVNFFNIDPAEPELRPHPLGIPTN

Regarding `Cc1nc(COc2ccc3c(c2)OC(CNCCCO)CC3)cs1` (stereo not shown) (as salt: HCl) [Example 24, 3-{[7-(2-methyl-thiazol-4-ylmethoxy)-chroman-2-ylmethyl]-amino}-propan-1-ol], the melting point lay within 123 to 128 °C. The same measure, in the same setting: in the case of `CCCCOCCCNCC1CCc2ccc(OCc3ccccc3)cc2O1` (stereo not shown) (as salt: hydrochloride) [Example 8, (7-benzyloxy-chroman-2-ylmethyl)-(3-butoxy-propyl)-amine] it was 130 to 132 °C; in that of `OCCNCC1CCc2ccc(OCc3ccccc3)cc2O1` (stereo not shown) (as salt: hydrochloride) [Example 9, 2-[(7-benzyloxy-chroman-2-ylmethyl)-amino]-ethanol], 200 to 201 °C; in that of `c1ccc(CCCNCC2CCc3ccc(OCc4ccccc4)cc3O2)cc1` (stereo not shown) (as salt: hydrochloride) [Example 10, (7-benzyloxy-chroman-2-ylmethyl)-(3-phenyl-propyl)-amine], 138 to 139 °C. The same measure, in the same setting: in the case of `c1ccc(COCCCNCC2CCc3ccc(OCc4ccccc4)cc3O2)cc1` (stereo not shown) (as salt: hydrochloride) [Example 11, (7-benzyloxy-chroman-2-ylmethyl)-(3-benzyloxy-propyl)-amine] it was 138 to 139 °C; in that of `CCCCNCC1CCc2ccc(OCc3ccccc3)cc2O1` (stereo not shown) (as salt: hydrochloride) [Example 12, (7-benzyloxy-chroman-2-ylmethyl)-butyl-amine], 150 to 151 °C; in that of `OCCCNCC1CCc2ccc(OCC3CCCCC3)cc2O1` (stereo not shown) (as salt: hydrochloride) [Example 13, 3-[(7-cyclohexylmethoxy-chroman-2-ylmethyl)-amino]-propan-1-ol], 159 to 160 °C.

Molecule `OCCCNCC1CCc2ccc(OCc3ccccc3Cl)cc2O1` (stereo not shown) (as salt: hydrochloride) [Example 14, 3-{[7-(2-chloro-benzyloxy)-chroman-2-ylmethyl]-amino}-propan-1-ol] returned a melting point of 114 to 115 °C.

Molecule `OCCCNCC1CCc2ccc(Oc3ccccc3)cc2O1` (stereo not shown) (as salt: hydrochloride) [Example 15, 3-[(7-phenoxy-chroman-2-ylmethyl)-amino]-propan-1-ol] displayed a melting point of 178 to 179 °C. Still for that read-out and setting: in the case of `Cc1nc(COc2ccc3c(c2)OC(CNCCCO)CC3)cs1` (stereo not shown) (as salt: salt) [Example 23, 3-{[7-(2-methyl-thiazol-4-ylmethoxy)-chroman-2-ylmethyl]-amino}-propan-1-ol] it was 94 to 102 °C. `NCC1CCc2ccc(OCc3ccccc3)cc2O1` (stereo not shown) [Example 6, [(7-Benzyloxy)chroman-2-yl]methylamine Hydrochloride]: the Ki in data set [1] (read-out: 5-HT6 Binding Ki) came to 15 nM. As to `c1ccc(CNCC2CCc3ccc(OCc4ccccc4)cc3O2)cc1` (stereo not shown) [Example 7, Benzyl-[(7-benzyloxy)chroman-2-yl]methylamine Hydrochloride], the Ki in data set [1] (read-out: 5-HT6 Binding Ki) came out at 26 nM.

Turning to `CCCCOCCCNCC1CCc2ccc(OCc3ccccc3)cc2O1` (stereo not shown) [Example 8, (7-benzyloxy-chroman-2-ylmethyl)-(3-butoxy-propyl)-amine], the Ki in data set [1] (read-out: 5-HT6 Binding Ki) amounted to 16 nM. The same measure, in the same setting: in the case of `OCCNCC1CCc2ccc(OCc3ccccc3)cc2O1` (stereo not shown) [Example 9, 2-[(7-benzyloxy-chroman-2-ylmethyl)-amino]-ethanol] it was 12 nM.

On to `c1ccc(CCCNCC2CCc3ccc(OCc4ccccc4)cc3O2)cc1` (stereo not shown) [Example 10, (7-benzyloxy-chroman-2-ylmethyl)-(3-phenyl-propyl)-amine], for which the Ki in data set [1] (read-out: 5-HT6 Binding Ki) turned out to be 44 nM.

As for `c1ccc(COCCCNCC2CCc3ccc(OCc4ccccc4)cc3O2)cc1` (stereo not shown) [Example 11, (7-benzyloxy-chroman-2-ylmethyl)-(3-benzyloxy-propyl)-amine], the inhibition constant (Ki) in data set [1] (read-out: 5-HT6 Binding Ki) stood at 27 nM. Same read-out and setting: in the case of `CCCCNCC1CCc2ccc(OCc3ccccc3)cc2O1` (stereo not shown) [Example 12, (7-benzyloxy-chroman-2-ylmethyl)-butyl-amine] it was 43 nM; in that of `OCCCNCC1CCc2ccc(OCC3CCCCC3)cc2O1` (stereo not shown) [Example 13, 3-[(7-cyclohexylmethoxy-chroman-2-ylmethyl)-amino]-propan-1-ol], 357 nM. In the case of `OCCCNCC1CCc2ccc(OCc3ccccc3Cl)cc2O1` (stereo not shown) [Example 14, 3-{[7-(2-chloro-benzyloxy)-chroman-2-ylmethyl]-amino}-propan-1-ol], the Ki in data set [1] (read-out: 5-HT6 Binding Ki) is 38 nM. For `OCCCNCC1CCc2ccc(Oc3ccccc3)cc2O1` (stereo not shown) [Example 15, 3-[(7-phenoxy-chroman-2-ylmethyl)-amino]-propan-1-ol], the inhibitory constant (Ki) in data set [1] (read-out: 5-HT6 Binding Ki) stood at 283 nM. Same read-out and setting: in the case of `OCCCNCC1CCc2ccc(OCCc3ccccc3)cc2O1` (stereo not shown) [Example 22, 3-{[(7-(Phenethyloxy)chroman-2-ylmethyl]amino}propan-1-ol Hydrochloride] it was 101 nM. On to `Cc1nc(COc2ccc3c(c2)OC(CNCCCO)CC3)cs1` (stereo not shown) [Example 23, 3-{[7-(2-methyl-thiazol-4-ylmethoxy)-chroman-2-ylmethyl]-amino}-propan-1-ol], for which, in data set [1] (5-HT6 Binding Ki), the affinity corresponds to a Ki of 41 nM. The same measure, in the same setting: as for `Cc1nc(COc2ccc3c(c2)OC(CNCCCO)CC3)cs1` (stereo not shown) [Example 24, 3-{[7-(2-methyl-thiazol-4-ylmethoxy)-chroman-2-ylmethyl]-amino}-propan-1-ol], the figure is 120 nM. In the case of `OCCCNCC1CCc2cc(Cl)c(OCc3ccccc3)cc2O1` (stereo not shown) [Example 29, 3-{[(7-Benzyloxy)-6-chlorochroman-2-ylmethyl]amino}propan-1-ol Fumaric Acid Salt], in data set [1] (read-out: 5-HT6 Binding Ki), the Ki is 34 nM. Same read-out and setting: as for `CN(CCCO)CC1CCc2ccc(OCc3ccccc3)cc2O1` (stereo not shown) [Example 30, 3-{[(7-benzyloxy)chroman-2-ylmethyl]methylamino}propan-1-ol Fumaric Acid Salt], the figure is 27 nM.

With `O=[N+]([O-])c1ccc(OCCCNCC2CCc3ccc(OCc4ccccc4)cc3O2)cc1` (stereo not shown) [Example 32, (7-benzyloxy-chroman-2-ylmethyl)-[3-(4-nitro-phenoxy)-propyl]-amine], the melting point was in the range of 118 to 120 °C. Besides, the inhibitory constant (Ki) in data set [1] (read-out: 5-HT6 Binding Ki) is 157 nM.

`O=[N+]([O-])c1cccc(OCCCNCC2CCc3ccc(OCc4ccccc4)cc3O2)c1` (stereo not shown) [Example 33, (7-benzyloxy-chroman-2-ylmethyl)-[3-(3-nitro-phenoxy)-propyl]-amine] displayed a melting point of 82 to 87 °C. Moreover, the Ki in data set [1] (read-out: 5-HT6 Binding Ki) turned out to be 69 nM. The molecule `Clc1cccc(OCCCNCC2CCc3ccc(OCc4ccccc4)cc3O2)c1` (stereo not shown) [Example 34, (7-benzyloxy-chroman-2-ylmethyl)-[3-(3-chloro-phenoxy)-propyl]-amine] gave a melting point of 110 to 116 °C. Moreover, the Ki in data set [1] (read-out: 5-HT6 Binding Ki) came to 192 nM. In the case of `O=c1ccc2ccc(OCCCNCC3CCc4ccc(OCc5ccccc5)cc4O3)cc2o1` (stereo not shown) [Example 35, 7-{3-[(7-benzyloxy-chroman-2-ylmethyl)-amino]-propoxy}-chromen-2-one], the melting point lay in the range of 63 to 68 °C. For the same molecule, in data set [1] (read-out: 5-HT6 Binding Ki), the Ki turned out to be 29 nM. Taken in the same sequence, the figures for `O=c1ccc2ccc(OCCCNCC3CCc4cc(Cl)c(OCc5ccccc5)cc4O3)cc2o1` (stereo not shown) [Example 36, 7-{3-[(7-benzyloxy-6-chloro-chroman-2-ylmethyl)-amino]-propoxy}-chromen-2-one] were 92 to 95 °C and 43 nM. Regarding `OC[C@H](CSCc1ccccc1)NCC1CCc2ccc(OCc3ccccc3)cc2O1` (stereo partly drawn) [Example 37, (2R)-2-[(7-benzyloxy-chroman-2-ylmethyl)-amino]-3-benzylsulfanyl-propan-1-ol], the melting point was 59 to 65 °C. For the same molecule, in data set [1] (read-out: 5-HT6 Binding Ki), the Ki came out at 303 nM. `OCCCNCCC1CCc2ccc(OCc3ccccc3)cc2O1` (stereo not shown) [Example 42, 3-{[2-(7-Benzyloxy)chroman-2-yl]ethylamino}propan-1-ol Hydrochloride]: the Ki in data set [1] (read-out: 5-HT6 Binding Ki) amounted to 107 nM. With `OCCNC[C@H]1CCc2ccc(OCc3ccccc3)cc2O1` [Example 44], the melting point lay within 196 to 197 °C. The Ki in data set [1] (read-out: 5-HT6 Binding Ki) stood at 10 nM.

Turning to `OCCCNC[C@H]1CCc2ccc(OCc3ccccc3)cc2O1` [Example 45, 3-{[(2R)-7-benzyloxy-chroman-2-ylmethyl]-amino}-propan-1-ol], the melting point worked out at 119 °C. In addition, in data set [1] (read-out: 5-HT6 Binding Ki), the Ki was 9 nM. Turning to `OCCNCC1Cc2ccc(OCc3ccccc3)cc2O1` (stereo not shown) [Example 51, 2-{[6-(Benzyloxy)-2,3-dihydrobenzofuran-2-ylmethyl]amino}ethanol Hydrochloride], the Ki in data set [1] (read-out: 5-HT6 Binding Ki) was 386 nM.
